The source of these data is ChEMBL document CHEMBL3232992, “Synthesis and the hepatoprotective activity of dibenzocyclooctadiene lignan derivatives” (2014).

The test system of this experiment is L02. Description: Hepatoprotective activity against carbon tetrachloride-induced toxicity in human HL-7702 cells assessed as increase of cell survival rate at 0.2 ug/ul pretreated for 12 hrs before carbon tetrachloride addition by MTS assay relative to control. It counts as functional. Background: Tetrazolium dyes change colour on reduction, which living cells bring about.
With `COc1cc2c(c(OC)c1OC)-c1c(O)c(OC)c(OC)c(Cl)c1C[C@H](C)[C@H](C)C2`, the Survival worked out at 63%.

Regarding `COc1c(Cl)c2c(c(OC)c1OC)-c1c(cc3c(c1OC)OCO3)C[C@H](C)[C@H](C)C2`, the Survival is reported as 43.4%.

Turning to `COc1c(O)c2c(c(Cl)c1OC)C[C@H](C)[C@H](C)Cc1c(Cl)c(OC)c(OC)c(OC)c1-2`, the Survival is 98.5%.

As to `COC(=O)c1cc(OC)c2c(c1-c1c(C(=O)OC)cc(OC)c3c1OCO3)OCO2` [BIFENDATE], the Survival was found to be 40.3%.

As to `COc1c(Cl)c2c(c(OC)c1OC)-c1c(c(Cl)c3c(c1OC)OCO3)C[C@H](C)[C@H](C)C2`, the Survival stood at 51.8%.

In the case of `COc1cc2c(c(OC)c1OC)-c1c(cc3c(c1OC)OCO3)C[C@H](C)[C@H](C)C2` [WUWEIZISU B], the Survival is on record as 42.8%.

In the case of `COC1=C(OC)C23C(=CC1=O)CC(C)C2(C)Cc1cc(OC)c(OC)c(OC)c13` (stereo unspecified), the Survival was 34.6%.

Turning to `COC1=C(OC)C(=O)C2=C(C[C@H](C)[C@H](C)Cc3cc(OC)c(OC)c(OC)c32)C1=O`, the Survival was found to be 85.5%.

For `COc1cc2c(c(OC)c1OC)-c1c(cc(OC)c(OC)c1OC)C[C@](C)(O)[C@@H](C)C2` [SCHIZANDRIN], the Survival is listed as 43.3%.

Turning to `COc1c(O)c2c(c(I)c1OC)C[C@H](C)[C@H](C)Cc1c(I)c(OC)c(OC)c(OC)c1-2`, the Survival came to 50%.

On to `COc1cc2c(c(OC)c1OC)-c1c(cc(OC)c(OC)c1OC(C)=O)C[C@H](C)[C@H](C)C2`, for which the Survival was 65%.

As for `COc1cc2c(c(OC)c1OC)-c1c(c(Br)c(OC)c(OC)c1OC)C[C@](C)(O)[C@@H](C)C2`, the Survival amounted to 50%.

As to `COc1cc2c(c(O)c1OC)-c1c(cc(OC)c(OC)c1OC)C[C@@H](C)[C@@H](C)C2` [SCHISANHENOL], the Survival is reported as 48.1%.

Turning to `COc1c(Br)c2c(c(OC)c1OC)-c1c(c(OC)c(OC)c(OC)c1OC)C[C@](C)(O)[C@@H](C)C2`, the Survival amounted to 73.6%.

`COc1c(Br)c2c(c(OC)c1OC)-c1c(cc3c(c1OC)OCO3)C[C@H](C)[C@H](C)C2`: the Survival came out at 49.1%.

Consider `COc1c(OC)c(C(C)=O)c2c(c1OC)-c1c(cc3c(c1OC)OCO3)C[C@H](C)[C@H](C)C2`, for which the Survival was 44.4%.

Consider `COc1c(Br)c2c(c(OC)c1OC)-c1c(c(Br)c(OC)c(OC)c1OC)C[C@](C)(O)[C@@H](C)C2`, for which the Survival amounted to 54.2%.

For `COC1=C(OC)C(OC(C)=O)C2=C(C[C@H](C)[C@H](C)Cc3cc(OC)c(OC)c(OC)c32)C1=O` (stereo partly specified), the Survival turned out to be 52.7%.

Turning to `COc1c(Cl)c2c(c(OC)c1OC)-c1c(c(Cl)c(OC)c(OC)c1OC)C[C@](C)(O)[C@@H](C)C2`, the Survival came to 44%.

In the case of `COc1c(I)c2c(c(OC)c1OC)-c1c(c(I)c(OC)c(OC)c1OC)C[C@](C)(O)[C@@H](C)C2`, the Survival is given as 45%.

Consider `COc1c(I)c2c(c(OC)c1OC)-c1c(c(I)c3c(c1OC)OCO3)C[C@H](C)[C@H](C)C2`, for which the Survival came to 90%.

In the case of `COc1cc2c(c(OC)c1OC)-c1c(O)c(OC)c(OC)c(Br)c1C[C@H](C)[C@H](C)C2`, the Survival is reported as 82%.

For the molecule `COc1c(O)c2c(c(Br)c1OC)C[C@H](C)[C@H](C)Cc1c(Br)c(OC)c(OC)c(OC)c1-2`, the Survival was found to be 83%.

Take `COc1cc2c(c(OC)c1OC)-c1c(c(Cl)c(OC)c(OC)c1OC)C[C@](C)(O)[C@@H](C)C2`: the Survival is reported as 44%.

Regarding `COc1cc2c(c(OC)c1OC)-c1c(c(I)c(OC)c(OC)c1OC)C[C@](C)(O)[C@@H](C)C2`, the Survival is 40.9%.

In the case of `COc1c(Br)c2c(c(OC)c1OC)-c1c(c(Br)c3c(c1OC)OCO3)C[C@H](C)[C@H](C)C2`, the Survival is listed as 63.4%.
